Results taken from patent US6898455B2, “Method for providing optimal drug dosage” (The McLean Hospital Corporation, priority 1999, dated 2005).

Assays:
[1] = system: regional brain metabolism; conditions: cited from earlier work; for effect of chronic treatment on regional brain metabolism (PET): adult ADHD patients, Matochik et al. 1994
[2] = system: adult ADHD subjects; conditions: i.v., Ernst et al. 1998; cited from earlier work
[3] = system: putamen of children with ADHD; test: T2 relaxometry of the putamen, blinded placebo-controlled daily treatment; assay type: in vivo, human; conditions: p=0.006
From the text: (§1) With this particular arrangement, an apparatus for indirectly assessing blood volume in the striatum (caudate and putamen and cerebellum) under steady-state conditions and for non-invasively diagnosing ADHD is provided. […] In one study eleven boys with ADHD had higher T2 relaxation times than six non-ADHD boys. The probability of this occurring by chance is 0.8%. The relaxation times correlated with the child's capacity to sit still, and their accuracy in performing a computerized attention task. Product-moment correlation coefficients (denoted r) for each of the above activities as well as with a probability of finding this occurrence by chance (denoted p) were computed using conventional techniques. […] It was discovered that ADHD symptoms may be closely tied to functional abnormalities in the putamen and cerebellum which are predominantly involved in the regulation and coordination of motoric behavior. […]
(§2) Turning now to FIG. 2, processing begins in steps 40 and 42 in which after positioning subjects to be tested (e.g. children or other persons possibly having brain dysfunction) in a scanning region of an MRI system of the type described above in conjunction with FIG. 1, and instructing the subjects to remain as still as possible, images of particular regions of interest (ROI) are acquired by perturbing the magnetic field in the subject and taking readings at particular times. […]

[4] = system: cerebellum of the most hyperactive ADHD boys; test: T2 relaxometry of the cerebellum, blinded placebo-controlled daily treatment (summary study); assay type: in vivo, human; conditions: eight of the most hyperactive boys; F3,21=5.011, p=0.0089
From the text: With this particular arrangement, an apparatus for indirectly assessing blood volume in the striatum (caudate and putamen and cerebellum) under steady-state conditions and for non-invasively diagnosing ADHD is provided. […] In one study eleven boys with ADHD had higher T2 relaxation times than six non-ADHD boys. The probability of this occurring by chance is 0.8%. The relaxation times correlated with the child's capacity to sit still, and their accuracy in performing a computerized attention task. Product-moment correlation coefficients (denoted r) for each of the above activities as well as with a probability of finding this occurrence by chance (denoted p) were computed using conventional techniques. […] It was discovered that ADHD symptoms may be closely tied to functional abnormalities in the putamen and cerebellum which are predominantly involved in the regulation and coordination of motoric behavior. […] It should also be appreciated that the apparatus and technique of the present invention may be equally applied to other brain regions (or even other organs) and may be useful for diagnosing conditions other than ADHD.
Referring now to FIG. 5, a T2 relaxation time image of the brain and cerebellum is shown. Circumscribed ROIs are illustrated for the cerebellar vermis V as well as, right R and left L cerebellar hemispheres. […]

[5] = system: putamen of children with ADHD; conditions: stated as known; cited from earlier work
[6] = system: caudate or thalamus of children with ADHD; test: T2 relaxometry of caudate and thalamus, blinded placebo-controlled daily treatment; assay type: in vivo, human
From the text: as §1, §2

[7] = system: cerebellar vermis of boys with ADHD; test: T2 relaxometry (fMRI) of the cerebellar vermis after one week of daily treatment; assay type: in vivo, human; conditions: for decrease in vermal T2-RT relative to placebo (average): three least active boys with ADHD
Method: (§3) In one particular embodiment, T2 relaxometry was used to indirectly assess blood volume in the cerebellum (hemispheres and midline vermis) of ten ADHD boys treated continuously for one week with placebo and three different doses of MPH. […] Following each week of treatment, and within 1-3 hours of their afternoon dose, testing for drug efficacy was performed using objective measures of activity.
Ten boys with ADHD (9.3±1.6 yr), and six healthy comparison subject boys (10.2±1.5 yr) were studied. Children with ADHD were screened using structured diagnostic interview (the Schedule for Affective Disorders and Schizophrenia for School-Age Children—Epidemiologic Version, “K-SADS-E”) and included if they met criteria for ADHD, and had at least 6 of 9 symptoms of inattention or hyperactivity-impulsivity. Children then took part in a triple blind (parent, child, rater), randomized, placebo-controlled study on the effects of methylphenidate (0, 0.5, 0.8, 1.5 mg/kg/day in two divided doses) on activity and fMRI. Children were treated continuously for one week with placebo or specific dose of methylphenidate. They were tested on day seven for drug response using objective measures of activity immediately following fMRI.
On test days, parents were instructed to give the afternoon dose 1 hour prior to their MRI appointment. Medication administration was assessed at each visit to insure that time between ingestion and testing were held constant for each subject throughout the study.
During each examination, 3 categories of images were obtained: (1) Scout images (typically T1-weighted sagittal images); (2) High resolution T1 matched axial images through the ten planes for which maps of T2 were generated; and (3) 32 spin echo, echoplanar image sets, with TE incremented by 4 msec in each consecutive image set (e.g. TE (1)=32 msec, TE (2)=36 msec, . . . TE (32)=156 msec) through the same ten axial planes ([…], Slice thickness=7 mm with a 3 mm skip, in-plane resolution=3.125 mm×3.125 mm, FOV=200 mm). The 32 TE-stepped images were then transferred to an off-line workstation and corrected for in plane motion using a modification of the DART image registration algorithm.
Values of T2 (x, y) and S (TE=0, x, y) were then calculated on a pixel-wise basis, assuming exponential decay, i.e. 1n [S (x, y, n)]=1n [S (TE=0), x, y]−TE (n)/T2 (x, y) where (x, y) describe the location of the pixel; n characterizes the echo number, from 1 to 32; and S is the image signal intensity. Linear least-squares regression was used to calculate a single T2 relaxation time measure for each pixel (x, y). Calculations of regional T2 relaxation time were made for regions of interest (ROI) drawn manually under the guidance of conventional T1-wighted matched MRI images in 2 to 4 slices through the cerebellum using anatomic boundaries observed in T1-weighted, preliminary T2-RT maps, and an atlas of the cerebellum. ROI slice selections were based on an assessment of the presence of cerebral spinal fluid in order to minimize partial volume artifacts, which result in abnormally elevated T2 relaxation times (values>100 msec were rejected). Sixteen voxel ROI's in the vermis were conservatively limited to square regions ([…]), to avoid encroaching into ventricular space and to provide consistency between slices and subjects.
FIGS. 7A and 7B show representative cerebellar ROIs including the vermis V and the left and right cerebella C. Delineation of regions and analysis of imaging data were performed on coded images, by an analyst very familiar with cerebellar anatomy who was blind to the identity, diagnosis, and treatment condition of the subject.

[8] = system: cerebellar hemispheres of boys with ADHD; test: T2 relaxometry (fMRI) of the cerebellar hemispheres after one week of daily treatment; assay type: in vivo, human; conditions: Dose F=0.88, p>0.4; Dose x Activity F=0.47, p>0.7
Method: as §3
Ten boys with ADHD (9.3±1.6 yr), and six healthy comparison subject boys (10.2±1.5 yr) were studied. Children with ADHD were screened using structured diagnostic interview (the Schedule for Affective Disorders and Schizophrenia for School-Age Children—Epidemiologic Version, “K-SADS-E”) and included if they met criteria for ADHD, and had at least 6 of 9 symptoms of inattention or hyperactivity-impulsivity. […]
On test days, parents were instructed to give the afternoon dose 1 hour prior to their MRI appointment. Medication administration was assessed at each visit to insure that time between ingestion and testing were held constant for each subject throughout the study. […]
Values of T2 (x, y) and S (TE=0, x, y) were then calculated on a pixel-wise basis, assuming exponential decay, i.e. 1n [S (x, y, n)]=1n [S (TE=0), x, y]−TE (n)/T2 (x, y) where (x, y) describe the location of the pixel; n characterizes the echo number, from 1 to 32; and S is the image signal intensity. […]

Q: Which “effect of chronic treatment on regional brain metabolism (PET)” value [1] does the source give for C[C@H](N)Cc1ccccc1 [dextroamphetamine] here?
A: no consistent effect

Q: What about the “effect on global or regional metabolic rates” value ([1]; i.v., adult ADHD subjects, Ernst et al. 1998) of the same compound?
A: no consistent effect

Q: And the effect on attention [2]?
A: robust effects on attention

Q: For COC(=O)C(c1ccccc1)C1CCCCN1 (stereo not drawn) [methylphenidate], which “effect of chronic treatment on regional brain metabolism (PET)” value [1] is on record?
A: no consistent effect

Q: What about the “effect on frontotemporal metabolism” value ([1]; subjects with high availability of DA D2 receptors, Volkow et al. 1997) of the same compound?
A: increased frontotemporal metabolism

Q: And the effect on metabolism ([1]; subjects with low availability of D2 receptors, Volkow et al. 1997)?
A: decreased metabolism

Q: And the “effect on relaxation times in the putamen” value [3]?
A: significantly altered

Q: What about the “effect on relaxation times in the cerebellum” value [4] of the same compound?
A: dose-dependently altered

Q: And the “effect of daily high-dose treatment on T2-RT in the putamen” value [5]?
A: changed T2-RT in the putamen

Q: What about the “change of relaxation times in caudate or thalamus” value [6] of the same compound?
A: nor did relaxation times in these regions change

Q: And the “increase in vermal T2-RT relative to placebo” value ([7]; high dose (1.5 mg/kg/day, one week), seven hyperactive ADHD boys)?
A: 5.1%

Q: What about the “decrease in vermal T2-RT relative to placebo (average)” value ([7]; high dose (1.5 mg/kg/day, one week)) of the same compound?
A: 3.9%

Q: And the “group effect (hyperactive vs non-hyperactive boys) on percent change in vermis T2-RT” value ([7]; high dose, F=15.98, df=1, 8, p=0.004)?
A: significant group effect

Q: What about the “effect size (Cohen d) of the medication-induced change in T2-RT” value ([7]; highest dose, hyperactive subjects, 95% CI in brackets) of the same compound?
A: 2.13 (95% CI, 0.82-3.44)

Q: And the “effect of moderate and high doses on T2-RT (direction by basal activity)” value ([7]; increase in the most active ADHD children, reduction in those not objectively hyperactive)?
A: increased T2-RT in a rate-dependent manner

Q: What about the “increase in vermal T2-RT relative to placebo” value ([7]; intermediate dose (0.8 mg/kg/day, one week), seven hyperactive ADHD boys) of the same compound?
A: 2.1%

Q: What about the “decrease in vermal T2-RT relative to placebo (average)” value ([7]; intermediate dose (0.8 mg/kg/day, one week)) of the same compound?
A: 3.5%

Q: And the “group effect (hyperactive vs non-hyperactive boys) on percent change in vermis T2-RT” value ([7]; intermediate dose, F=6.75, df=1, 8, p=0.04)?
A: significant group effect

Q: What about the “increase in vermal T2-RT relative to placebo” value ([7]; low dose (0.5 mg/kg/day, one week), seven boys at least 20% more active than the most active comparison subject) of the same compound?
A: 1.2%

Q: And the “decrease in vermal T2-RT relative to placebo (average)” value ([7]; low dose (0.5 mg/kg/day, one week))?
A: 1.3%

Q: What about the “group effect (hyperactive vs non-hyperactive boys) on percent change in vermis T2-RT” value ([7]; low dose, F=0.63, df=1, 8, p=0.63) of the same compound?
A: non-significant group effect

Q: What about the “effect of dose on cerebellar or vermal T2-RT, repeated-measures ANOVA without covariate” value ([7]; ten ADHD boys, F=1.167, df=3, 27, p=0.34) of the same compound?
A: failed to reveal any significant effect of dose

Q: What about the “effect of treatment on vermal T2-RT, analysis of covariance with motor activity” value ([7]; ten ADHD boys, F=4.85, df=3, 24, p=0.009, effect of dose linear) of the same compound?
A: robust effect

Q: What about the “effect of treatment on T2-RT in the adjacent cerebellar hemispheres” value [8] of the same compound?
A: No effect
